Patent US20240309038A1, “NOVEL GALACTOSIDE INHIBITOR OF GALECTINS” (GALECTO BIOTECH AB, priority 2020, published 2024)

molecular target: Gal-3 (Homo sapiens, UniProt P17931); assay: Fluorescence anisotropy assay, inhibition of galectin / fluorescein tagged saccharide probe interaction; assay type: binding
Description: The affinity of Example 1-59 for galectins were determined by a fluorescence anisotropy assay where the compound was used as an inhibitor of the interaction between galectin and a fluorescein tagged saccharide probe as described Sörme, P., Kahl-Knutsson, B., Huflejt, M., Nilsson, U. J., and Leffler H. (2004) Fluorescence polarization as an analytical tool to evaluate galectin-ligand interactions. Anal. Biochem. 334: 36-47, (Sarme et al., 2004)

Sequence of Gal-3 (P17931 whole entry, species assumed): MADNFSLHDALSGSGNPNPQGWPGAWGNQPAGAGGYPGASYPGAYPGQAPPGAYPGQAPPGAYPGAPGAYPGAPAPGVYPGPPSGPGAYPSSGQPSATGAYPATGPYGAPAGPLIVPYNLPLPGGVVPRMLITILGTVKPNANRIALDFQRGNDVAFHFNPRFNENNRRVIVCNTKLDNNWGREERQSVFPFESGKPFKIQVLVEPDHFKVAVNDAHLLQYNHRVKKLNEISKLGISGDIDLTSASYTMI

Structure (SMILES) | Kd [nM]
Cc1nc([C@@H]2OC(CO)[C@H](O)C(n3cc(-c4cc(F)c(Cl)c(F)c4)c(C(=O)O)n3)C2O)n(-c2cc(Cl)ccc2C(F)(F)F)n1 (stereo in doubt) [Example 30, 1-{5-{3-[3-Carboxy-4-(4-chloro-3,5-difluorophenyl)-1H-1,2-pyrazol-1-yl]-3-deoxy-β-D-galactopyranosyl}-3-methyl-1H-1,2,4-triazol-1-yl}-5-chloro-2-(trifluoromethyl)benzene] | 6
Cc1nc([C@@H]2OC(CO)[C@H](O)C(n3cc(-c4cc(F)c(Cl)c(F)c4)c(C#N)n3)C2O)n(-c2cc(Cl)ccc2C(F)(F)F)n1 (stereo in doubt) [Example 31, 1-{5-{3-[4-(4-Chloro-3,5-difluorophenyl)-3-cyano-1H-1,2-pyrazol-1-yl]-3-deoxy-β-D-galactopyranosyl}-3-methyl-1H-1,2,4-triazol-1-yl}-5-chloro-2-(trifluoromethyl)benzene] | 12
Cc1nc([C@@H]2OC(CO)[C@H](O)C(n3cc(-c4cc(F)c(Cl)c(F)c4)c(C(N)=O)n3)C2O)n(-c2cc(Cl)ccc2C(F)(F)F)n1 (stereo in doubt) [Example 32, 1-{5-{3-[3-Aminocarbonyl-4-(4-chloro-3,5-difluorophenyl)-1H-1,2-pyrazol-1-yl]-3-deoxy-β-D-galactopyranosyl}-3-methyl-1H-1,2,4-triazol-1-yl}-5-chloro-2-(trifluoromethyl)benzene] | 23
Cc1nc([C@@H]2OC(CO)[C@H](O)C(n3cc(-c4cc(F)c(F)c(F)c4)cn3)C2O)n(-c2ncc(Cl)s2)n1 (stereo in doubt) [Example 33, 5-Chloro-2-{5-{3-deoxy-3-[4-(3,4,5-trifluorophenyl)-1H-1,2-pyrazol-1-yl]-β-D-galactopyranosyl}-3-methyl-1H-1,2,4-triazol-1-yl}-thiazole] | 520
Cc1nc([C@@H]2OC(CO)[C@H](O)C(n3cc(-c4cc(F)c(F)c(F)c4)cn3)C2O)n(-c2ccc3ncsc3c2)n1 (stereo in doubt) [Example 34, 6-{5-{3-Deoxy-3-[4-(3,4,5-trifluorophenyl)-1H-1,2-pyrazol-1-yl]-β-D-galactopyranosyl}-3-methyl-1H-1,2,4-triazol-1-yl}benzothiazole] | 9
CCc1nc2ccc(-n3nc(C)nc3[C@@H]3OC(CO)[C@H](O)C(n4cc(-c5cc(F)c(F)c(F)c5)cn4)C3O)cc2s1 (stereo in doubt) [Example 35, 6-{5-{3-Deoxy-3-[4-(3,4,5-trifluorophenyl)-1H-1,2-pyrazol-1-yl]-β-D-galactopyranosyl}-3-methyl-1H-1,2,4-triazol-1-yl}-2-ethylbenzothiazole] | 12
Cc1nc([C@@H]2OC(CO)[C@H](O)C(n3cc(-c4cc(F)c(F)c(F)c4)cn3)C2O)n(-c2ccc3nc(C(F)(F)F)sc3c2)n1 (stereo in doubt) [Example 36, 6-{5-{3-Deoxy-3-[4-(3,4,5-trifluorophenyl)-1H-1,2-pyrazol-1-yl]-β-D-galactopyranosyl}-3-methyl-1H-1,2,4-triazol-1-yl}-2-(trifluoromethyl)benzothiazole] | 230
Cc1nc([C@@H]2OC(CO)[C@H](O)C(n3cc(-c4cc(F)c(F)c(F)c4)cn3)C2O)n(-c2cc(C#N)c3nc(C)sc3c2)n1 (stereo in doubt) [Example 42, 4-Cyano-6-{5-{3-deoxy-3-[4-(3,4,5-trifluorophenyl)-1H-1,2-pyrazol-1-yl]-β-D-galactopyranosyl}-3-methyl-1H-1,2,4-triazol-1-yl}-2-methylbenzothiazole] | 12
Cc1nc([C@@H]2OC(CO)[C@H](O)C(n3cc(-c4cc(F)c(F)c(F)c4)cn3)C2O)n(-c2cnc3nc(C)sc3c2)n1 (stereo in doubt) [Example 45, 6-{5-{3-Deoxy-3-[4-(3,4,5-trifluorophenyl)-1H-1,2-pyrazol-1-yl]-β-D-galactopyranosyl}-3-methyl-1H-1,2,4-triazol-1-yl}-2-methylthiazolo[4,5-b]pyridine] | 35
Cc1nc([C@@H]2OC(CO)[C@H](O)C(n3cc(-c4cc(F)c(F)c(F)c4)cn3)C2O)n(-c2cc(C#N)ccc2C(F)(F)F)n1 (stereo in doubt) [Example 46, 5-Cyano-1-{5-{3-deoxy-3-[4-(3,4,5-trifluorophenyl)-1H-1,2-pyrazol-1-yl]-β-D-galactopyranosyl}-3-methyl-1H-1,2,4-triazol-1-yl}-2-(trifluoromethyl)benzene] | 19
Cc1nc([C@@H]2OC(CO)[C@H](O)C(n3cc(-c4cc(F)c(F)c(F)c4)c(-c4ccccc4)n3)C2O)n(-c2cc(Cl)ccc2C(F)(F)F)n1 (stereo in doubt) [Example 47, 5-Chloro-1-{5-{3-deoxy-3-[4-(3,4,5-trifluorophenyl)-3-phenyl-1H-1,2-pyrazol-1-yl]-β-D-galactopyranosyl}-3-methyl-1H-1,2,4-triazol-1-yl}-2-(trifluoromethyl)benzene] | 80
Cc1nc([C@@H]2OC(CO)[C@H](O)C(n3cc(-c4cc(F)c(F)c(F)c4)c(-c4ccccc4F)n3)C2O)n(-c2cc(Cl)ccc2C(F)(F)F)n1 (stereo in doubt) [Example 48, 5-Chloro-1-{5-{3-deoxy-3-[4-(3,4,5-trifluorophenyl)-3-(2-fluorophenyl)-1H-1,2-pyrazol-1-yl]-β-D-galactopyranosyl}-3-methyl-1H-1,2,4-triazol-1-yl}-2-(trifluoromethyl)benzene] | 54
Cc1nc([C@@H]2OC(CO)[C@H](O)C(n3cc(-c4cc(F)c(F)c(F)c4)c(C)n3)C2O)n(-c2cc(Cl)ccc2C(F)(F)F)n1 (stereo in doubt) [Example 49, 5-Chloro-1-{5-{3-deoxy-3-[4-(3,4,5-trifluorophenyl)-3-methyl-1H-1,2-pyrazol-1-yl]-β-D-galactopyranosyl}-3-methyl-1H-1,2,4-triazol-1-yl}-2-(trifluoromethyl)benzene] | 13
Cc1nc([C@@H]2OC(CO)[C@H](O)C(n3cc(-c4cc(F)c(F)c(F)c4)c(Cc4ccccc4)n3)C2O)n(-c2cc(Cl)ccc2C(F)(F)F)n1 (stereo in doubt) [Example 50, 1-{5-{3-[3-Benzyl-4-(3,4,5-trifluorophenyl)-1H-1,2-pyrazol-1-yl]-3-deoxy-β-D-galactopyranosyl}-3-methyl-1H-1,2,4-triazol-1-yl}-5-chloro-2-(trifluoromethyl)benzene] | 36
Cc1nc([C@@H]2OC(CO)[C@H](O)C(n3cc(-c4cc(F)c(F)c(F)c4)c(C#N)n3)C2O)n(-c2cc(Cl)ccc2C(F)(F)F)n1 (stereo in doubt) [Example 51, 5-Chloro-1-{5-{3-[3-cyano-4-(3,4,5-trifluorophenyl)-1H-1,2-pyrazol-1-yl]-3-deoxy-β-D-galactopyranosyl}-3-methyl-1H-1,2,4-triazol-1-yl}-2-(trifluoromethyl)benzene] | 15

More lines, now with the values ahead:

Kd [nM] | Structure (SMILES)
16 | Cc1nc([C@@H]2OC(CO)[C@H](O)C(n3cc(-c4cc(F)c(F)c(F)c4)cn3)C2O)n(-c2cc3sc(C)nc3cc2F)n1 (stereo in doubt) [Example 37, 6-{5-{3-Deoxy-3-[4-(3,4,5-trifluorophenyl)-1H-1,2-pyrazol-1-yl]-β-D-galactopyranosyl}-3-methyl-1H-1,2,4-triazol-1-yl}-5-fluoro-2-methylbenzothiazole]
210 | Cc1nc([C@@H]2OC(CO)[C@H](O)C(n3cc(-c4cc(F)c(F)c(F)c4)cn3)C2O)n(-c2ccc3nc(C)sc3c2F)n1 (stereo in doubt) [Example 38, 6-{5-{3-Deoxy-3-[4-(3,4,5-trifluorophenyl)-1H-1,2-pyrazol-1-yl]-β-D-galactopyranosyl}-3-methyl-1H-1,2,4-triazol-1-yl}-7-fluoro-2-methylbenzothiazole]
10 | Cc1nc([C@@H]2OC(CO)[C@H](O)C(n3cc(-c4cc(F)c(F)c(F)c4)cn3)C2O)n(-c2cc(F)c3nc(C)sc3c2)n1 (stereo in doubt) [Example 39, 6-{5-{3-Deoxy-3-[4-(3,4,5-trifluorophenyl)-1H-1,2-pyrazol-1-yl]-β-D-galactopyranosyl}-3-methyl-1H-1,2,4-triazol-1-yl}-4-fluoro-2-methylbenzothiazole]
260 | Cc1nc([C@@H]2OC(CO)[C@H](O)C(n3cc(-c4cc(F)c(F)c(F)c4)cn3)C2O)n(-c2ccc3nc(C)sc3c2Cl)n1 (stereo in doubt) [Example 40, 7-Chloro-6-{5-{3-deoxy-3-[4-(3,4,5-trifluorophenyl)-1H-1,2-pyrazol-1-yl]-β-D-galactopyranosyl}-3-methyl-1H-1,2,4-triazol-1-yl}-2-methylbenzothiazole]
10 | Cc1nc([C@@H]2OC(CO)[C@H](O)C(n3cc(-c4cc(F)c(F)c(F)c4)cn3)C2O)n(-c2cc(Cl)c3nc(C)sc3c2)n1 (stereo in doubt) [Example 41, 4-Chloro-6-{5-{3-deoxy-3-[4-(3,4,5-trifluorophenyl)-1H-1,2-pyrazol-1-yl]-β-D-galactopyranosyl}-3-methyl-1H-1,2,4-triazol-1-yl}-2-methylbenzothiazole]
11 | Cc1nc([C@@H]2OC(CO)[C@H](O)C(n3cc(-c4cc(F)c(F)c(F)c4)cn3)C2O)n(-c2cc3sc(C)nc3cc2Br)n1 (stereo in doubt) [Example 43, 5-Bromo-6-{5-{3-deoxy-3-[4-(3,4,5-trifluorophenyl)-1H-1,2-pyrazol-1-yl]-β-D-galactopyranosyl}-3-methyl-1H-1,2,4-triazol-1-yl}-2-methylbenzothiazole]
17 | Cc1nc([C@@H]2OC(CO)[C@H](O)C(n3cc(-c4cc(F)c(F)c(F)c4)cn3)C2O)n(-c2cc3sc(C)nc3cc2C#N)n1 (stereo in doubt) [Example 44, 5-Cyano-6-{5-{3-deoxy-3-[4-(3,4,5-trifluorophenyl)-1H-1,2-pyrazol-1-yl]-β-D-galactopyranosyl}-3-methyl-1H-1,2,4-triazol-1-yl}-2-methylbenzothiazole]
